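Compound exposure: 48 hours, 5 concentrations, 96-well plates. Abbreviation: GI50, concentration required for 50% inhibition of growth.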 Calls of active or inactive are those of the source. Cut-off read from the data, not from the text of the source: active = GI50 up to about 1.1 µM and inactive = higher.
Key:
Test in all cases: NCI anticancer screen, dose series, 48 h
[1] = test system: 786-0
[2] = test system: A498
[3] = test system: A549
[4] = test system: ACHN
[5] = test system: BT-549
[6] = test system: CAKI-1
[7] = test system: CCRF-CEM
[8] = test system: COLO 205
[9] = test system: DU-145
[10] = test system: EKVX
[11] = test system: HCC 2998
[12] = test system: HCT-116
[13] = test system: HCT-15
[14] = test system: HL-60
[15] = test system: HOP-62
[16] = test system: HOP-92
[17] = test system: HT-29
[18] = test system: Hs-578T
[19] = test system: IGROV-1
[20] = test system: K562
[21] = test system: KM12
[22] = test system: LOX IMVI
[23] = test system: M14
[24] = test system: MCF7
[25] = test system: MDA-MB-231
[26] = test system: MDA-MB-435
[27] = test system: MDA-N
[28] = test system: MOLT-4
[29] = test system: Malme-3M
[30] = test system: NCI-H226
[31] = test system: NCI-H23
[32] = test system: NCI-H460
[33] = test system: NCI/ADR-RES
[34] = test system: OVCAR-3
[35] = test system: OVCAR-4
[36] = test system: OVCAR-5
[37] = test system: OVCAR-8
[38] = test system: PC-3
[39] = test system: RPMI-8226
[40] = test system: SF-295
[41] = test system: SF-539
[42] = test system: SK-MEL-28
[43] = test system: SK-MEL-2
[44] = test system: SK-MEL-5
[45] = test system: SK-OV-3
[46] = test system: SN12C
[47] = test system: SNB-19
[48] = test system: SNB-75
[49] = test system: SR
[50] = test system: SW-620
[51] = test system: T47D
[52] = test system: TK-10
[53] = test system: U-251
[54] = test system: UACC-257
[55] = test system: UACC-62
[56] = test system: UO-31
[57] = test system: NCI-H522
[58] = test system: RXF 393
[59] = test system: SF-268

In the case of `N#C[C@@]12CCCC(=O)[C@@H]1[C@H]1CCC[C@H]12`, the GI50 [1] is reported as 14.7 µM (inactive), the GI50 [2] is reported as 17.1 µM (inactive) and the GI50 [3] is reported as 16.7 µM (inactive). The GI50 [4] was 17.7 µM (inactive), the GI50 [5] was 17.9 µM (inactive) and the GI50 [6] was 16.3 µM (inactive). The GI50 [7] was 16.6 µM (inactive), the GI50 [8] was 20 µM (inactive) and the GI50 [9] was 14.9 µM (inactive). The GI50 [10] was 13.2 µM (inactive), the GI50 [11] was 15.1 µM (inactive) and the GI50 [12] was 15.5 µM (inactive). For the same compound, the GI50 [13] was 16.3 µM, the GI50 [14] was 8.22 µM (inactive) and the GI50 [15] was 15.2 µM (inactive). The GI50 [16] was 11.5 µM (inactive), the GI50 [17] was 19.7 µM (inactive) and the GI50 [18] was 31.3 µM (inactive). The GI50 [19] was 16.5 µM (inactive), the GI50 [20] was 17.7 µM (inactive) and the GI50 [21] was 13.3 µM (inactive). For the same compound, the GI50 [22] was 14.4 µM (inactive), the GI50 [23] was 12.9 µM (inactive) and the GI50 [24] was 16.4 µM (inactive). The GI50 [25] was 14.6 µM (inactive), the GI50 [26] was 17.1 µM (inactive) and the GI50 [27] was 18.8 µM (inactive). For the same compound, the GI50 [28] was 21.2 µM (inactive), the GI50 [29] was 13.6 µM (inactive) and the GI50 [30] was 20.7 µM (inactive). For the same compound, the GI50 [31] was 16.1 µM (inactive), the GI50 [32] was 16.6 µM (inactive) and the GI50 [33] was 22.5 µM (inactive). The GI50 [34] was 10.3 µM (inactive), the GI50 [35] was 21.3 µM (inactive) and the GI50 [36] was 9.46 µM (inactive). For the same compound, the GI50 [37] was 21.6 µM (inactive), the GI50 [38] was 13.9 µM (inactive) and the GI50 [39] was 11 µM (inactive). For the same compound, the GI50 [40] was 24.7 µM (inactive), the GI50 [41] was 23.7 µM (inactive) and the GI50 [42] was 17.7 µM (inactive). For the same compound, the GI50 [43] was 16.9 µM (inactive), the GI50 [44] was 15.8 µM (inactive) and the GI50 [45] was 14.7 µM (inactive). For the same compound, the GI50 [46] was 16.4 µM (inactive), the GI50 [47] was 21.7 µM (inactive) and the GI50 [48] was 13.7 µM (inactive). The GI50 [49] was 26.1 µM (inactive), the GI50 [50] was 20.6 µM (inactive) and the GI50 [51] was 20.9 µM (inactive). The GI50 [52] was 19.9 µM (inactive), the GI50 [53] was 17.2 µM (inactive) and the GI50 [54] was 20.2 µM (inactive). The GI50 [55] was 22.6 µM (inactive) and the GI50 [56] was 16.1 µM (inactive).
With `Oc1c2cc(Br)cc1CCc1cc(Br)cc(c1O)CC2` the GI50 [1] was 30.2 µM (inactive), the GI50 [2] was 31.8 µM (inactive) and the GI50 [3] was 26.9 µM (inactive). The GI50 [4] was 23.7 µM (inactive), the GI50 [5] was 22.6 µM (inactive) and the GI50 [6] was 36 µM (inactive). The GI50 [7] was 18.2 µM (inactive), the GI50 [8] was 14.4 µM (inactive) and the GI50 [9] was 16 µM (inactive). The GI50 [11] was 15.3 µM (inactive), the GI50 [12] was 15.1 µM (inactive) and the GI50 [13] was 30.5 µM. For the same compound, the GI50 [14] was 15.7 µM (inactive), the GI50 [15] was 28.6 µM (inactive) and the GI50 [17] was 15.6 µM (inactive). The GI50 [18] was 23.1 µM (inactive), the GI50 [19] was 38.2 µM (inactive) and the GI50 [20] was 20.2 µM (inactive). For the same compound, the GI50 [21] was 17.3 µM (inactive), the GI50 [22] was 16.2 µM (inactive) and the GI50 [23] was 16.3 µM (inactive). The GI50 [24] was 22.3 µM (inactive), the GI50 [25] was 14 µM (inactive) and the GI50 [26] was 29.2 µM (inactive). For the same compound, the GI50 [27] was 30.1 µM (inactive), the GI50 [28] was 18 µM (inactive) and the GI50 [29] was 28.8 µM (inactive). For the same compound, the GI50 [30] was 16.3 µM (inactive), the GI50 [31] was 28.6 µM (inactive) and the GI50 [32] was 18.5 µM (inactive). For the same compound, the GI50 [57] was 14.4 µM (inactive), the GI50 [33] was 21.6 µM (inactive) and the GI50 [34] was 20.2 µM (inactive). The GI50 [36] was 23.2 µM (inactive), the GI50 [37] was 28.8 µM (inactive) and the GI50 [38] was 14.8 µM (inactive). The GI50 [39] was 17.2 µM (inactive), the GI50 [58] was 20.2 µM (inactive) and the GI50 [59] was 22.6 µM (inactive). The GI50 [40] was 18.3 µM (inactive), the GI50 [41] was 28.4 µM (inactive) and the GI50 [42] was 27 µM (inactive). The GI50 [43] was 20 µM (inactive), the GI50 [44] was 13.6 µM (inactive) and the GI50 [45] was 20.8 µM (inactive). For the same compound, the GI50 [46] was 41.9 µM (inactive), the GI50 [47] was 31 µM (inactive) and the GI50 [48] was 21.6 µM (inactive). The GI50 [49] was < 0.01 µM (active), the GI50 [50] was 24.3 µM (inactive) and the GI50 [51] was 38.8 µM (inactive). For the same compound, the GI50 [52] was 31.6 µM (inactive), the GI50 [53] was 23.6 µM (inactive) and the GI50 [54] was 20.2 µM (inactive). The GI50 [55] was 18.6 µM (inactive) and the GI50 [56] was 12.8 µM (inactive).

From ChEMBL document CHEMBL1201862, “PubChem BioAssay data set” (2004)
